Test results reported in article PMC9686653, “Bioengineered Nisin A Derivatives Display Enhanced Activity against Clinical Neonatal Pathogens” (Antibiotics, 2022).
Converted amounts (≈) assume the structure as drawn. Marks after values point to notes of the source that are not given here. Where no end group is shown, it is not given here.

Columns and labels:
S. agalactiae CIT 67 = experiment: Broth MIC assay; assay type: cell-based, Streptococcus agalactiae
Protocol: (§1) MIC determinations were carried out in triplicate in 96-well microtiter plates (Sarstedt, Newton, NC, USA) as previously described. Initially, 200µL of 1% bovine serum albumin (BSA) (Sigma-Aldrich, St. Louis, MO, USA) (in PBS) was added to the plates which were incubated at 37 °C for 30 min. The solution was removed, plates were washed with 200 µL PBS and then air dried in a laminar flow hood. Target strains (Streptococcus agalactiae, Staphylococcus capitis and Lactococcus lactis) were grown overnight in suitable media under appropriate conditions and were subsequently sub-cultured into fresh broth and allowed to grow to an optical density of ~0.5 (OD600). The culture was then diluted to a final concentration of 10^5 CFU mL^−1 in a volume of 1 mL. The peptides were resuspended in appropriate media to a stock concentration of […] (S. agalactiae and S. capitis strains) and […] (L. lactis strains). Nisin A and nisin derivatives were adjusted to a starting concentration of 15 µM (S. agalactiae and S. capitis strains) or 5 µM (L. lactis strains). […] An aliquot of 100 µL of peptides and or antibiotics were added to the first well, mixed and then 2-fold serial dilutions of each peptide were made in TSBYE broth. Then, 100 µL of target strain was added to each test well, and the plates were incubated at 30 °C or 37 °C for 16 h. The MIC was read as the lowest peptide concentration causing inhibition of visible growth. Experiments were performed in triplicate.

S. capitis AY41 = experiment: microbe, parasite or virus in culture; assay type: cell-based, Staphylococcus capitis
Protocol: as §1

[1] = system: clinical isolates of S. agalactiae (n = 5) and S. capitis (n = 5); experiment: Deferred antagonism agar-based assay; assay type: cell-based, Streptococcus agalactiae, Staphylococcus capitis; details: pathogenic indicators, n = 10
Protocol: All plates were supplemented with sub-inhibitory concentration (10 µg/L) of nisin in the form of nisaplin to ensure induction of the nisin mutants.
Site-saturation mutagenesis of three codons, including threonine, lysine and methionine, at positions 2, 12 and 17 of the nisA gene, was carried out as described previously. Briefly, pDF23 (pCI372-PV) was used as a template and oligonucleotides, NisT2deg-FOR and REV, NisK12deg-FOR and REV and Nis17deg-FOR and REV, containing an NNK codon potentially encoding for all twenty standard amino acids. Deferred antagonism agar-based assays were employed to assess the bioactivity of the nisin derivatives (PV, K12X-PV, T2X-PV, and M17X-PV) produced by each strain. Briefly, fresh overnight cultures of each L. lactis test culture was replicated on GM17/TSBYE agar plates containing 0.1% nisaplin using a 96-pin replicator (Boekel, Feasterville, PA, USA) and incubated overnight at 30 °C before being exposed to ultraviolet radiation for 45 min. The plates were then overlayed with GM17/TYSBYE agar (0.75% agar) and seeded (0.5% inoculum) with either Lactococcus lactis MG1614 (NSR-), the nisin resistance protein-expressing indicator strain L. lactis MG1614 pNP40 (NSR+) or TSBYE agar seeded with Staphylococcus capitis (NSR+) or Streptococcus agalactiae (NSR+) isolates. […]

S. capitis AR18 = experiment: Broth MIC assay; assay type: cell-based; details: Staphylococcus capitis, AR18, 16 h
Protocol: as §1

S. capitis AV80 = experiment: Broth MIC assay; assay type: cell-based; details: Staphylococcus capitis, AV80, 16 h
Protocol: as §1

S. capitis BA06 = experiment: Broth MIC assay; assay type: cell-based, Staphylococcus capitis; details: Staphylococcus capitis, BA06, 16 h
Protocol: as §1

S. capitis BD01 = experiment: Broth MIC assay; assay type: cell-based, Staphylococcus capitis
Protocol: as §1

[2] = cited from earlier work
Excerpt: NSR degrades nisin by cleaving the pept ...

S. agalactiae CIT 239 = experiment: Broth MIC assay; assay type: cell-based, Streptococcus agalactiae; details: broth microdilution in TSBYE, 10^5 CFU/mL, 16 h, 37 °C; average of three independent biological repeats
Protocol: as §1

S. agalactiae CIT 364 = experiment: Broth MIC assay; assay type: cell-based, Streptococcus agalactiae; details: broth microdilution in TSBYE, 10^5 CFU/mL, 16 h, 37 °C; average of three independent biological repeats
Protocol: as §1

S. agalactiae CIT 85 = experiment: Broth MIC assay; assay type: cell-based, Streptococcus agalactiae; details: broth microdilution in TSBYE, 10^5 CFU/mL, 16 h, 37 °C; average of three independent biological repeats
Protocol: as §1

S. agalactiae CIT 87 = experiment: Broth MIC assay; assay type: cell-based, Streptococcus agalactiae; details: broth microdilution in TSBYE, 10^5 CFU/mL, 16 h, 37 °C; average of three independent biological repeats
Protocol: as §1

[3] = broth microdilution in TSBYE, 10^5 CFU/mL, 16 h, 37 °C, average of three independent biological repeats

In the case of `C=C(NC(=O)[C@@H](NC(=O)[C@H](Cc1c[nH]cn1)NC(=O)[C@@H](NC(=O)[C@@H]1CCCN1C(=O)[C@@H]1CS[C@@H](C)[C@H]2NC(=O)[C@H](C)NC(=O)[C@H](NC(=O)[C@H](CCCCN)NC(=O)[C@H](CCSC)NC(=O)[C@H](CC(N)=O)NC(=O)[C@@H]3CS[C@@H](C)[C@@H](NC(=O)[C@H](CCCCN)NC(=O)[C@@H]4CS[C@@H](C)[C@@H](NC(=O)[C@@H]5CSC[C@@H](NC(=O)[C@H](C)NC(=O)[C@@H](N)[C@@H](C)CC)C(=O)N[C@@H]([C@@H](C)CC)C(=O)NC(=C)C(=O)N[C@@H](CC(C)C)C(=O)N5)C(=O)N5CCC[C@H]5C(=O)NCC(=O)N4)C(=O)NCC(=O)N[C@@H](C)C(=O)N[C@@H](CC(C)C)C(=O)N[C@@H](CCSC)C(=O)NCC(=O)N3)[C@H](C)SC[C@H](NC2=O)C(=O)N[C@@H](Cc2c[nH]cn2)C(=O)N1)C(C)C)C(C)C)C(=O)N[C@@H](CCCCN)C(=O)O` [T2A-PV], the “fold decrease in specific activity compared to nisin A” value (S. agalactiae CIT 67; from MIC) is reported as 2 fold, the “fold decrease in specific activity compared to nisin PV” value (S. agalactiae CIT 67; from MIC) is reported as 4 fold and the MIC (S. capitis AY41; 16 h) is reported as 12.5 * µg/mL. For the same compound, the “fold decrease in potency compared to nisin PV” value (S. capitis AY41; from MIC) was 2 fold, the “fold increase in potency compared to nisin A” value (S. capitis AY41; from MIC) was 2 fold and the “bioactivity (zone of inhibition) of the producing strain” value [1] was “not apparent against the pathogenic isolates”.
`CN[C@H](CC(C)C)C(=O)N[C@H]1C(=O)N[C@@H](CC(N)=O)C(=O)N[C@H]2C(=O)N[C@H]3C(=O)N[C@H](C(=O)N[C@H](C(=O)O)c4cc(O)cc(O)c4-c4cc3ccc4O)[C@H](O)c3ccc(c(Cl)c3)Oc3cc2cc(c3O[C@@H]2O[C@H](CO)[C@@H](O)[C@H](O)[C@H]2O[C@H]2C[C@](C)(N)[C@H](O)[C@H](C)O2)Oc2ccc(cc2Cl)[C@H]1O` [Vancomycin, vancomycin] gave an MIC (S. capitis AR18) of 1.56 µg/mL (≈ 1.08 µM), an MIC (S. capitis AV80) of 3.13 µg/mL (≈ 2.16 µM) and an MIC (S. capitis AY41; Staphylococcus capitis, AY41, 16 h) of 1.56 µg/mL (≈ 1.08 µM). For the same compound, the MIC (S. capitis BA06) was 1.56 µg/mL (≈ 1.08 µM) and the MIC (S. capitis BD01; Staphylococcus capitis, BD01, 16 h) was 3.13 µg/mL (≈ 2.16 µM).
For “nisin 1–28: truncated nisin structure left after NSR cleavage (ITSISLCTPGCKTGALMGCNMKTATCHC; ends and bridges not checked; also: lantibiotic thioether rings (Lan/MeLan) and dehydro residues, places not given here; UniProt P13068 24-51, looked up, fragment)”, the “decrease in antimicrobial activity compared to nisin” value [2] is given as “up to 100 fold”.
Compound penicillin has an MIC (S. agalactiae CIT 239) of 0.02 µg/mL, an MIC (S. agalactiae CIT 364) of 0.02 µg/mL and an MIC (S. agalactiae CIT 67; [3]) of 0.04 µg/mL. For the same compound, the MIC (S. agalactiae CIT 85) was 0.012 µg/mL, the MIC (S. agalactiae CIT 87) was 0.02 µg/mL and the MIC (S. capitis AY41; [3]) was 0.39 µg/mL. The MIC (S. capitis BD01; [3]) was 6.25 µg/mL.
